Test results from US20140257169A1, “USE OF PHOTO[…] PREPARATION OF VIRUS-INACTIVATING MEDICAMENTS FOR TREATING DISEASES” (Beijing Ecyber Medical Technology R & D Center Co. , Ltd., priority 2013, published 2014).

System: thoracic aorta blood vessel plaque
Settings: high fat/high cholesterol fed rabbit; 5-ALA 80 mg/kg intraperitoneal 1.5 h before; substrate (carbamide peroxide) intravenously infused; irradiation once with 5 Gy; examined on the seventh day
From the text: The New-Zealand rabbit model of blood vessel plaque is a common animal experimental model. […] The blood vessel plaque was taken as the target region and positioned, and a radiotherapy plan was made.

In the case of NCC(=O)CCC(=O)O [5-ALA], the “regression of thoracic aorta blood vessel plaque (CTA angiography and MR)” value is reported as “completely disappeared”.
